US11352607B2, “Genomic engineering of pluripotent cells” (Fate Therapeutics, Inc., priority 2015, dated 2022)

Assays:
iCasp9-integrated iPSCs = assay: AP1903-induced cell death of iCasp9-targeted hiPSCs (7AAD staining, flow cytometry); assay type: cell-based, human; details: 24 hrs
Procedure: The sorted GFP (neg), GFP (low) and GFP (hi) populations were expanded, and then were subjected to AP1903 treatment (10 nM or 100 nM), or DMSO as control, for 24 hrs. The treated cells were harvested and stained with 7AAD and analyzed by flow cytometry. The 7AAD negative cells (presumably live cells) percentage were plotted for each treatment.
Expanded puro-resistant iPSCs were then subjected to AP1903 (or DMSO control) treatment for 24 hrs. The treated cells were harvested and stained with 7AAD and analyzed by flow cytometry. The 7AAD negative cells, i.e., live cells, percentage were plotted for each treatment.

293T cells = assay: AP1903-induced cell death of iCasp9-targeted 293T cells (7AAD); assay type: cell-based; details: 10 nM or 120 nM, 24 hrs; 293T cells with CMV-driven iCasp9 at AAVS1
Text: The chemical inducer of dimerization (CID; AP1903) was purchased from Medchemexpress (Monmouth Junction, N.J.). Twenty-four hours after CID exposure, the cells were harvested and stained with 7-amino actinomycin D (7-AAD) according to the manufacturer's instruction (BD Biosciences). The percentage of 7-AAD positive cells were quantified as dead cells by flow cytometry (Guava, EMD Millipore, Billerica, Mass.) and analyzed with flowjo software.
A donor construct encompassing CMV-driven iCasp9 (AAVS1-G1.0) was designed to target the AAVS1 locus (FIG. 1A) and to integrate the Casp9 suicide gene to 293T cells. The donor construct also comprise GFP and puromycin genes, the expression of which are driven by AAVS1 endogenous promoter once the targeted insertion takes place (FIG. 1A). 293T cells were transfected with ZFNs specific to AAVS1 locus and the donor construct AAVS1-G1.0. Three days after transfection, the puromycin selection was started and continued for 12 days. The puro-selected population was analyzed by flow cytometry for GFP expression, and a range of GFP expression levels were observed. It was observed that about 82% of the puro-selected cell population expressed GFP (FIG. 1B). […] The treated cells were then harvested and stained with 7AAD, which selectively stains membrane-compromised dying cells, and analyzed by flow cytometry. […]

[1] = test system: CAG-C38 iCasp9 iPSC clone with sr39TK at H11 locus; assay: Dual suicide gene safe guard system: AP1903 and GCV treatment in vitro; assay type: cell-based, human; details: 10 nM AP1903 two days; 25 μg/mL GCV nine days
Text: In addition to CAG-iCasp9 integrated into AAVS1 locus, CAG-sr39TK was integrated into H11 safe harbor in CAG-C38 clonal iPSC using targeted insertion method described herein.

SMILES: CC[C@H](C(=O)N1CCCC[C@H]1C(=O)O[C@H](CCc1ccc(OC)c(OC)c1)c1cccc(OCC(=O)NCCNC(=O)COc2cccc([C@@H](CCc3ccc(OC)c(OC)c3)OC(=O)[C@@H]3CCCCN3C(=O)[C@@H](CC)c3cc(OC)c(OC)c(OC)c3)c2)c1)c1cc(OC)c(OC)c(OC)c1 [AP1903]
- cell death mediated by AP1903 (iCasp9-integrated iPSCs; 10 nM or 100 nM, hiPSCs with CMV-driven iCasp9, GFP (neg), GFP (low), GFP (hi) populations): not detected
- cell death mediated by AP1903 (iCasp9-integrated iPSCs; hiPSCs with iCasp9 under endogenous AAVS1 promoter): not detected
- cell death post AP1903 treatment (293T cells): Significant cell death was detected
- inducible killing of CAG-C38 iCasp9 clone with sr39TK at H11 [1]: inducible killing of most cells but rare cells remained

SMILES: Nc1nc(O)c2ncn(COC(CO)CO)c2n1 [GCV, Ganciclovir]
- inducible killing of CAG-C38 iCasp9 clone with sr39TK at H11 [1]: expanded GCV-refractory cells
